Data as given in US7592350B2, “Polycyclic compounds as potent alpha2-adrenoceptor antagonists” (Orion Corporation, priority 2002, dated 2009).
Read-outs that look alike come from different tables or passages of the source.

How the values were obtained:
alpha2A-adrenoceptor = target: T1, alpha2A-adrenoceptor (Homo sapiens, UniProt P08913); test: Radioligand binding to alpha2-adrenoceptors (alpha2A); conditions: calculated Ki from radioligand binding assays; read-out: Binding affinity (Ki) alpha2A
T1 sequence (P08913 1-465): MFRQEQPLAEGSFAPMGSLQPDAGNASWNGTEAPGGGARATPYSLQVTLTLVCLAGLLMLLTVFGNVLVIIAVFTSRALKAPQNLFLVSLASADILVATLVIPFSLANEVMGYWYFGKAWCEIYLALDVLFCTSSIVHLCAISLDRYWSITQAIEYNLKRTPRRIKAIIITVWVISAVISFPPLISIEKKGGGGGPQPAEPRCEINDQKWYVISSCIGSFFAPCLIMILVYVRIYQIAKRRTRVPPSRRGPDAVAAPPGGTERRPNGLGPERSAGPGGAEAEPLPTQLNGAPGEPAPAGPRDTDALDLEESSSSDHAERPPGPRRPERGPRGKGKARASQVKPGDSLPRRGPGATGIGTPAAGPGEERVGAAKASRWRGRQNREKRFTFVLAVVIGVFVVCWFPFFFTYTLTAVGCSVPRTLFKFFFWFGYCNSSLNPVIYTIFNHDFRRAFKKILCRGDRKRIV

alpha2C-adrenoceptor = target: T2, alpha2C-adrenoceptor (Homo sapiens, UniProt P18825); test: Radioligand binding to alpha2-adrenoceptors (alpha2C)
T2 sequence (P18825 1-462): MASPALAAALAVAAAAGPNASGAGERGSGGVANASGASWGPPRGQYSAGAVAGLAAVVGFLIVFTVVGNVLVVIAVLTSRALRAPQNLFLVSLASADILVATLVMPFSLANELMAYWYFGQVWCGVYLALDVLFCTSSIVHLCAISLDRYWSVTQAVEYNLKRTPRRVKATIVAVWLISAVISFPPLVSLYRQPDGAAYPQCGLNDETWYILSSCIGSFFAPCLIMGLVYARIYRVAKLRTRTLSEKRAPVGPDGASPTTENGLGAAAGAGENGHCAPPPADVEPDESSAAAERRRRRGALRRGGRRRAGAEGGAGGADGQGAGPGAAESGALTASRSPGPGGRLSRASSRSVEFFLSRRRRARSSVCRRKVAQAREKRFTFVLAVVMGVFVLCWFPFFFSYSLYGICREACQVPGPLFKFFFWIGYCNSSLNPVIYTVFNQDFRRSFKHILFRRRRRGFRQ

alpha2B-adrenoceptor = target: T3, alpha2B-adrenoceptor (Homo sapiens, UniProt P18089); test: Radioligand binding to alpha2-adrenoceptors (alpha2B); conditions: calculated Ki from radioligand binding assays; read-out: Binding affinity (Ki) alpha2B
T3 sequence (P18089 1-450): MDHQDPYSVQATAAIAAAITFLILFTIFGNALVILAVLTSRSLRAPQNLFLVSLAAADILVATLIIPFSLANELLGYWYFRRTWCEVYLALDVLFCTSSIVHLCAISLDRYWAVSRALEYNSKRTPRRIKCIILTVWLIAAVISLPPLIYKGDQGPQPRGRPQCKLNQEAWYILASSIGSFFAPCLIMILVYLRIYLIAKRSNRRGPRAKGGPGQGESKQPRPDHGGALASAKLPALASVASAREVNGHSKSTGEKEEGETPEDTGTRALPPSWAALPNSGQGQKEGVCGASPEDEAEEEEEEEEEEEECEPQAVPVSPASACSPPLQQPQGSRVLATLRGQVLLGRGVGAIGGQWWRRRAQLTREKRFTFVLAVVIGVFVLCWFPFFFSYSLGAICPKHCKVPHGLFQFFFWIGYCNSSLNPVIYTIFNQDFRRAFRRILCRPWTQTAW
Source text: Examples of the alpha2-adrenoceptor binding affinities of the compounds including in the present invention are shown in the Table 1. Many of these compouinds are high-affinity ligands for all the alpha2-receptors, but some of them display selectivity for the alpha2C-subtype.

[1] = calculated Ki from radioligand binding assays, read-out: Binding affinity (Ki) alpha2C

Ki (alpha2A-adrenoceptor)	Ki (alpha2C-adrenoceptor; [1])	Ki (alpha2B-adrenoceptor)	Compound	Ki (alpha2C-adrenoceptor)
27 nM	6.4 nM	40 nM	CC(C)(C)[C@@H]1CCN2CCc3c([nH]c4ccccc34)[C@@H]2C1 (relative stereo) [Compound Q, 2β-tert-butyl-1,2,3,4,6,7,12,12bα-octahydro-indolo[2,3-a]quinolizine]	
710 nM	87 nM	580 nM	CCC(C)C1(O)CCCN2CCc3c([nH]c4ccccc34)C21 (stereo not shown) [Compound C, 1-s-Butyl-1,2,3,4,6,7,12,12bβ-octahydro-indolo[2,3-a]quinolizin-1-ol]	
380 nM	110 nM	270 nM	OC[C@H]1CCCN2CCc3c([nH]c4ccccc34)[C@H]12 (relative stereo) [Compound O, (1β,2,3,4,6,7,12,12bα-Octahydroindolo’[2,3-a]quinolizin-1-yl)-methanol]	
210 nM	75 nM	520 nM	CC[C@@H]1CCCN2CCc3c([nH]c4ccccc34)[C@@H]12 (relative stereo) [Compound J, 1β-ethyl-1,2,3,4,6,7,12,12bβ-octabydroindolo[2,3-a]quinolizine]	
29 nM	17 nM	81 nM	COC1CCN2CCc3c([nH]c4ccccc34)C2C1 (stereo not drawn) [Compound D, 2α-Methoxy-1,2,3,4,6,7,12,12bα-octahydro-indolo[2,3-a]quinolizine]	
290 nM	90 nM	410 nM	CC(O)C1CCCN2CCc3c([nH]c4ccccc34)C12 (stereo not drawn) [Compound P, 1-(1α2,3,4,6,7,12 12bβ-Octahydroindolo[2,3-a]quinolizin-1-yl)-ethanol]	
130 nM	46 nM	1110 nM	CCC1=C(C)CC2c3[nH]c4ccccc4c3CCN2C1 (stereo not shown) [Compound N, 3-Ethyl-2-methyl-1,4,6,7,12,12b-hexahydro-indolo[2,3-a]quinolizine]	
440 nM	110 nM	470 nM	CC[C@]1(CO)CCCN2CCc3c([nH]c4ccccc34)[C@H]21 (relative stereo) [Compound M, (1β-Ethyl-1,2,3,4,6,7,12,12bβ-octahydroindolo[2,3-a]quinolizin-1-yl)-methanol]	
514 nM	70 nM		OC12CCCCC1CCN1CCc3c([nH]c4ccccc34)C12 (stereo not shown) [Compound F, 2,3,4,4aβ,5,6,7,8,13,13bβ-Decahydro-1H-6a,13-diaza-indeno[1,2-c]phenanthren-13cβ-ol]	
130 nM	25 nM	160 nM	CCC1(O)C(C)CCN2CCc3c([nH]c4ccccc34)C21 (stereo not drawn) [Compound B, 1α-Ethyl-2α-methyl-1,2,3,4,6,7,12,12bβ-octahydro-indolo[2,3-a]quinoulzin-1-ol]	
280 nM	23 nM	45 nM	C[C@@]1(O)CCCN2CCc3c([nH]c4ccccc34)[C@H]21 (relative stereo) [Compound H, 1α-Methyl-1,2,3,4,6,7,12,12bβ-octahydroindolo[2,3-a]quinolizin-1-ol]	
480 nM	61 nM	330 nM	CC(C)C1(O)CCCN2CCc3c([nH]c4ccccc34)C21 (stereo not drawn) [Compound A, 1α-Isopropyl-1,2,3,4,6,7,12,12bβ-octahydroindolo[2,3-a]quinolizin-1-ol]	

Compound	Ki (alpha2A-adrenoceptor)	Ki (alpha2C-adrenoceptor; [1])	Ki (alpha2B-adrenoceptor)	Ki (alpha2C-adrenoceptor)
c1ccc2c3c([nH]c2c1)C1CCCCCN1CC3 (stereo not shown) [Compound E, 2,3,4,5,7,8,13,13b-Octahydro-1H-azepino[1′,2′1,2]pyrido[3,4-b]indole]	30 nM	26 nM	110 nM	
C1=CCN2CCc3c([nH]c4ccccc34)C2C1 (stereo not shown) [Compound I, 1,4,6,7,12,12b-Hexahdroindolo[2,3-a]quinolizine]	150 nM		460 nM	85 nM
C[C@@H]1CCCN2CCc3c(oc4ccccc34)[C@@H]12 (relative stereo) [Compound G, 1-Methyl-1α,3,4,6,11bβ-hexahydro-2H-11-oxa4a-aza-benzo[a]fluorene]	96 nM	22 nM		
